Legend:
HK-2 [1] = test: Induction of apoptosis in human HK2 cells assessed as increase in Bax/Bcl2 ratio at 25 to 100 uM after 72 hrs by Western blot analysis; type: cell-based; conditions: hk-2, 72 h
HEK293 [2] = test: Substrate activity in human HEK293 cells harboring pEGFP-N1 empty vector assessed as compound uptake measured at 5 to 40 mins by UPLC-MS/MS method; type: ADME, cell-based
HK-2 [3] = test: Induction of apoptosis in human HK2 cells assessed as early apoptotic cells at 100 uM measured after 72 hrs by Annexin V-FITC/propidium iodide staining based flow cytometry (reference value: 8.1%); type: cell-based; conditions: hk-2, 72 h
[4] = Potency index, ratio of ADV drug concentration to compound concentration in mouse liver measured at 30 mins; type: ADME, tissue-based; conditions: in vivo, 0.5 h
HepG2 2.2.15 = test: Cytotoxicity against human HepG2.2.15 cells assessed as reduction in cell viability incubated for 12 hrs followed by replacement of fresh medium containing compound and measured after 2 days by CCK-8 assay; type: functional
[5] = Drug distribution in mouse liver at 5.47 mg/kg, po measured at 3 hrs by LC-MS/MS analysis; type: ADME, organism-based; conditions: read-out: Drug uptake
HK-2 [6] = test: Induction of apoptosis in human HK2 cells assessed as early apoptotic cells at 50 uM measured after 72 hrs by Annexin V-FITC/propidium iodide staining based flow cytometry (reference value: 8.1%); type: cell-based; conditions: hk-2, 72 h
HK-2 [7] = test: Induction of apoptosis in human HK2 cells assessed as dense staining at 25 to 100 uM measured after 72 hrs by Hoechst 33342 staining based fluorescence assay; type: cell-based; conditions: hk-2, 72 h
[8] = biological target: T1, Solute carrier family 22 member 6 (Homo sapiens, UniProt Q4U2R8); test: Substrate activity at human OAT1 expressed in HEK293 cells harboring pEGFP assessed as compound uptake measured after 20 mins by UPLC-MS/MS method; type: ADME, cell-based; conditions: hek293, 20 min
T1 sequence (Q4U2R8 whole entry): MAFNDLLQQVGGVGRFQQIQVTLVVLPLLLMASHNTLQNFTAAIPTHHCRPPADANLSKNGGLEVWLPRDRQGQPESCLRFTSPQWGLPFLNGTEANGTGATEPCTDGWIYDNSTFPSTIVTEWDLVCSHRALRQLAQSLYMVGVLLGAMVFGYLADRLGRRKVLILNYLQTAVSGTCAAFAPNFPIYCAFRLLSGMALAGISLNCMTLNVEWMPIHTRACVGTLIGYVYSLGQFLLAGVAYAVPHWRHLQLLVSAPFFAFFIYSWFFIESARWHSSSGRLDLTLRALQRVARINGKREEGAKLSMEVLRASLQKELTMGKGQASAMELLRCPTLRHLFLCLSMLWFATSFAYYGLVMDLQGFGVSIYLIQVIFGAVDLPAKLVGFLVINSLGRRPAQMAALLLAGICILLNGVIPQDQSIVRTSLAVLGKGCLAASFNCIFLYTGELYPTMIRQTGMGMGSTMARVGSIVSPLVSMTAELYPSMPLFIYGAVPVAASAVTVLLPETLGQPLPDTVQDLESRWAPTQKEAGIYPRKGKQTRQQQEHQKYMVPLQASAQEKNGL

[9] = Potency index, ratio of ADV drug concentration to compound concentration in mouse liver measured at 6 hrs; type: ADME, tissue-based; conditions: in vivo
HEK293 [10] = test: Cytotoxicity against human HEK293 cells expressing OAT1 assessed as reduction in cell viability after 1 hr by MTT assay; type: ADME, cell-based; conditions: hek293, 1 h
HK-2 [11] = test: Cytotoxicity against human HK2 cells assessed as cell viability at 25 to 100 uM after 72 hrs by MTT assay relative to control; type: cell-based; conditions: hk-2, 72 h
[12] = Drug distribution in mouse liver at 5.47 mg/kg, po measured at 60 mins by LC-MS/MS analysis; type: ADME, organism-based; conditions: read-out: Drug uptake
[13] = Potency index, ratio of ADV drug concentration to compound concentration in mouse liver measured at 24 hrs; type: ADME, tissue-based; conditions: in vivo
[14] = AUC (0 to t) in Sprague-Dawley rat at 100 mg/kg, po measured up to 24 hrs by LC-MS/MS analysis; type: ADME, organism-based; set-up: dose 100 mg/kg, time < 24 hr, route oral; conditions: in vivo
HK-2 [15] = test: Induction of mitochondrial membrane dysfunction in human HK2 cells assessed as effect mitochondrial membrane potential at 100 uM after 72 hrs by JC-1 staining based flow cytometry; type: cell-based; conditions: hk-2, 72 h
[16] = Drug distribution in mouse liver at 5.47 mg/kg, po measured at 6 hrs by LC-MS/MS analysis; type: ADME, organism-based; conditions: read-out: Drug uptake
HK-2 [17] = test: Induction of apoptosis in human HK2 cells assessed as early apoptotic cells at 25 uM measured after 72 hrs by Annexin V-FITC/propidium iodide staining based flow cytometry (reference value: 8.1%); type: cell-based; conditions: hk-2, 72 h
[18] = Drug distribution in mouse liver at 5.47 mg/kg, po measured at 24 hrs by LC-MS/MS analysis; type: ADME, organism-based; conditions: read-out: Drug uptake
[19] = Drug distribution in mouse liver at 5.47 mg/kg, po measured at 30 mins by LC-MS/MS analysis; type: ADME, organism-based; conditions: read-out: Drug uptake
[20] = Potency index, ratio of ADV drug concentration to compound concentration in mouse liver measured at 3 hrs; type: ADME, tissue-based; conditions: in vivo
HK-2 [21] = test: Induction of apoptosis in human HK2 cells assessed as induction of cleaved caspase 3 levels at 25 to 100 uM after 72 hrs by Western blot analysis; type: cell-based; conditions: hk-2, 72 h
[22] = Volume of distribution in Sprague-Dawley rat at 100 mg/kg, po measured up to 24 hrs by LC-MS/MS analysis; type: ADME, organism-based; conditions: in vivo
[23] = biological target: T1, Solute carrier family 22 member 6; test: Inhibition of human OAT1 expressed in HEK293 cells assessed as P-amino hippuric acid uptake inhibition incubated for 10 mins by UPLC-MS/MS method; type: ADME, cell-based
Hepatitis B virus = test: Antiviral activity against Hepatitis B virus infected in human HepG2.2.15 cells assessed as inhibition of viral DNA synthesis incubated for 2 days followed by replacement of fresh medium containing compound and measured at day 10 by RT-PCR analysis; type: functional, organism-based
HK-2 [24] = test: Induction of apoptosis in human HK2 cells assessed as nuclear pyknosis at 25 to 100 uM measured after 72 hrs by Hoechst 33342 staining based fluorescence assay; type: cell-based; conditions: hk-2, 72 h
[25] = Potency index, ratio of ADV drug concentration to compound concentration in mouse liver measured at 60 mins; type: ADME, tissue-based; conditions: in vivo, 1 h
[26] = Selectivity index, ratio of CC50 for cytotoxicity against human HepG2.2.15 cells to EC50 for HBV infected in human HepG2.2.15 cells; type: toxicity, cell-based; conditions: read-out: Ratio CC50/EC50
HK-2 [27] = test: Induction of apoptosis in human HK2 cells assessed as presence of apoptotic bodies at 25 to 100 uM measured after 72 hrs by Hoechst 33342 staining based fluorescence assay; type: cell-based; conditions: hk-2, 72 h
HK-2 [28] = test: Nephrotoxicity in human HK2 cells assessed as decrease in cell apoptosis at 25 to 100 uM measured after 72 hrs by Hoechst 33342 staining based fluorescence assay relative to ADV; type: toxicity; set-up: scale not given: the % may be the effect or the level left; conditions: hk-2, 72 h
HEK293 [29] = test: Cytotoxicity against human HEK293 cells harboring pEGFP-N1 empty vector assessed as reduction in cell viability after 1 hr by MTT assay; type: cell-based; conditions: hek293, 1 h
[30] = biological target: T2, OAT1 (solute carrier family 22 member 6) (Homo sapiens, UniProt Q4U2R8); test: Safety index, ratio of Adefovir dipivoxil IC50 to compound IC50 for human OAT1 expressed in HEK293 cells; type: ADME, cell-based; conditions: read-out: Ratio IC50
T2 sequence (Q4U2R8 whole entry): T1 sequence (Q4U2R8 whole entry)

HK-2 [31] = test: Induction of apoptosis in human HK2 cells assessed as reduction in Bcl-2 expression at 25 to 100 uM after 72 hrs by Western blot analysis; type: cell-based; conditions: hk-2, 72 h
HK-2 [32] = test: Induction of apoptosis in human HK2 cells assessed as increase in Bax level at 25 to 100 uM after 72 hrs by Western blot analysis; type: cell-based; conditions: hk-2, 72 h
HK-2 [33] = test: Cytotoxicity against human HK2 cells assessed as reduction in cell viability at 100 umol/L after 72 hrs by MTT assay relative to control; type: cell-based; conditions: hk-2, 72 h, 100 µM
HK-2 [34] = test: Reduction in mitochondrial membrane potential in human HK2 cells assessed as decrease in red fluorescence at 25 to 100 uM after 72 hrs by JC-1 staining based flow cytometry; type: ADME, cell-based; conditions: hk-2, 72 h
OAT1 = test: Selectivity ratio, ratio of substrate activity at human OAT1 expressed in HEK293 cells harboring pEGFP assessed as compound uptake to substrate activity in human HEK293 cells harboring pEGFP-N1 empty vector assessed as compound uptake; type: ADME, cell-based
[35] = Drug distribution in mouse kidney at 5.47 mg/kg, po measured up to 24 hrs by LC-MS/MS analysis; type: ADME, organism-based; conditions: in vivo
HK-2 [36] = test: Reduction in mitochondrial membrane potential in human HK2 cells assessed as increase in green fluorescence at 25 to 100 uM after 72 hrs by JC-1 staining based flow cytometry; type: ADME, cell-based; conditions: hk-2, 72 h
HK-2 [37] = test: Induction of mitochondrial membrane dysfunction in human HK2 cells assessed as reduction in mitochondrial potential at 100 uM after 72 hrs by JC-1 staining based flow cytometry; type: cell-based; conditions: hk-2, 72 h
HK-2 [38] = test: Induction of apoptosis in human HK2 cells assessed as increase in Bax/Bcl2 ratio after 72 hrs by Western blot analysis; type: cell-based; conditions: hk-2, 72 h
HEK293 [39] = test: Cytotoxicity against human HEK293 cells expressing OAT1 assessed as reduction in cell viability at 1000 uM after 1 hr by MTT assay relative to control; type: ADME, cell-based; conditions: hek293, 1 h
HK-2 [40] = test: Cytotoxicity against human HK2 cells assessed as reduction in cell viability after 72 hrs by MTT assay; type: cell-based; conditions: hk-2, 72 h

CC(C)C[C@@H](N)C(=O)OCCCOP(=O)(COCCn1cnc2c(N)ncnc21)OCCCOC(=O)CC[C@@H](C)[C@H]1CC[C@H]2[C@@H]3[C@@H](O)C[C@@H]4C[C@H](O)CC[C@]4(C)[C@H]3CC[C@]12C (some centres not stated)
Activity (HK-2 [1]): Non-Toxic | Activity (HEK293 [2]): < 60 pmol/min/mg | Activity (HK-2 [3]): 5.9% | Ratio [4]: 4.2 | CC50 (HepG2 2.2.15): 446 µM | concentration at 3 h [5]: 1160 ng/g | Activity (HK-2 [6]): 6.1% | Activity (HK-2 [7]): Non-Toxic | Activity [8]: < 60 pmol/min/mg | Ratio [9]: 4.8 | Activity (HEK293 [10]): Non-Toxic | Activity (HK-2 [11]): Non-Toxic | concentration at 1 h [12]: 1070 ng/g | Ratio [13]: 8.8 | AUCt [14]: 4645.705 µg/L/h | Activity (HK-2 [15]): Non-Toxic | concentration at 6 h [16]: 721 ng/g | Activity (HK-2 [17]): 9.7% | concentration at 24 h [18]: 695 ng/g | concentration at 0.5 h [19]: 305 ng/g | Ratio [20]: 3.4 | Activity (HK-2 [21]): Non-Toxic | Vd [22]: 78.716 L/kg | IC50 [23]: 286 µM | EC50 (Hepatitis B virus): 0.42 µM | Activity (HK-2 [24]): Non-Toxic | Ratio [25]: 6.5 | selectivity ratio [26]: 1060 | Activity (HK-2 [27]): Non-Toxic | Activity (HK-2 [28]): 37.4% | Activity (HEK293 [29]): Non-Toxic | selectivity ratio [30]: 21

CC(C)(C)C(=O)OCOP(=O)(COCCn1cnc2c(N)ncnc21)OCOC(=O)C(C)(C)C [ADEFOVIR DIPIVOXIL]
Activity (HK-2 [31]): Toxic | Activity (HK-2 [32]): Toxic | Activity (HK-2 [3]): 43.3% | Activity (HK-2 [33]): 61.01% | CC50 (HepG2 2.2.15): 439 µM | Activity (HK-2 [34]): Toxic | Activity (HK-2 [6]): 18.9% | Activity (HK-2 [7]): Toxic | Activity [8]: 400 pmol/min/mg | uptake ratio (OAT1): 7.5 | AUCt [14]: 1655.225 µg/L/h | Drug uptake [35]: Active | Activity (HK-2 [17]): 16.8% | Activity (HK-2 [21]): Toxic | Vd [22]: 153.128 L/kg | Activity (HK-2 [36]): Toxic | IC50 [23]: 13.5 µM | Activity (HK-2 [37]): Toxic | EC50 (Hepatitis B virus): 3.09 µM | Activity (HK-2 [24]): Toxic | Activity (HK-2 [38]): Dose-dependent effect | selectivity ratio [26]: 142 | Activity (HEK293 [39]): 47.16% | Activity (HK-2 [27]): Toxic | Activity (HK-2 [40]): Dose-dependent effect

From ChEMBL document CHEMBL4346741, “Synthesis, pharmacological evaluation, and mechanistic study of adefovir mixed phosphonate derivatives bearing cholic acid and l-amino acid moieties for the treatment of HBV” (Bioorg Med Chem, 2019)
